Data from ChEMBL document CHEMBL2074225, “Tissue distribution and chemical induction of multiple drug resistance genes in rats” (Drug Metab Dispos, 2002).

How the values were obtained:
[1] = biological target: Multidrug resistance protein 1a (Rattus norvegicus) (UniProt Q6PSM0); assay: (§1) TP_TRANSPORTER: Branched DNA assay in vivo SD rat, liver; type: functional, organism-based; conditions: Sprague-Dawley
[2] = biological target: T1, ATP-dependent translocase ABCB1 (Rattus norvegicus, UniProt P43245); assay: as §1; type: functional, organism-based, Sprague-Dawley
[3] = biological target: T1, ATP-dependent translocase ABCB1; assay: TP_TRANSPORTER: Branched DNA assay in vivo SD rat, kidney; type: functional, organism-based, Sprague-Dawley

T1 sequence (P43245 whole entry): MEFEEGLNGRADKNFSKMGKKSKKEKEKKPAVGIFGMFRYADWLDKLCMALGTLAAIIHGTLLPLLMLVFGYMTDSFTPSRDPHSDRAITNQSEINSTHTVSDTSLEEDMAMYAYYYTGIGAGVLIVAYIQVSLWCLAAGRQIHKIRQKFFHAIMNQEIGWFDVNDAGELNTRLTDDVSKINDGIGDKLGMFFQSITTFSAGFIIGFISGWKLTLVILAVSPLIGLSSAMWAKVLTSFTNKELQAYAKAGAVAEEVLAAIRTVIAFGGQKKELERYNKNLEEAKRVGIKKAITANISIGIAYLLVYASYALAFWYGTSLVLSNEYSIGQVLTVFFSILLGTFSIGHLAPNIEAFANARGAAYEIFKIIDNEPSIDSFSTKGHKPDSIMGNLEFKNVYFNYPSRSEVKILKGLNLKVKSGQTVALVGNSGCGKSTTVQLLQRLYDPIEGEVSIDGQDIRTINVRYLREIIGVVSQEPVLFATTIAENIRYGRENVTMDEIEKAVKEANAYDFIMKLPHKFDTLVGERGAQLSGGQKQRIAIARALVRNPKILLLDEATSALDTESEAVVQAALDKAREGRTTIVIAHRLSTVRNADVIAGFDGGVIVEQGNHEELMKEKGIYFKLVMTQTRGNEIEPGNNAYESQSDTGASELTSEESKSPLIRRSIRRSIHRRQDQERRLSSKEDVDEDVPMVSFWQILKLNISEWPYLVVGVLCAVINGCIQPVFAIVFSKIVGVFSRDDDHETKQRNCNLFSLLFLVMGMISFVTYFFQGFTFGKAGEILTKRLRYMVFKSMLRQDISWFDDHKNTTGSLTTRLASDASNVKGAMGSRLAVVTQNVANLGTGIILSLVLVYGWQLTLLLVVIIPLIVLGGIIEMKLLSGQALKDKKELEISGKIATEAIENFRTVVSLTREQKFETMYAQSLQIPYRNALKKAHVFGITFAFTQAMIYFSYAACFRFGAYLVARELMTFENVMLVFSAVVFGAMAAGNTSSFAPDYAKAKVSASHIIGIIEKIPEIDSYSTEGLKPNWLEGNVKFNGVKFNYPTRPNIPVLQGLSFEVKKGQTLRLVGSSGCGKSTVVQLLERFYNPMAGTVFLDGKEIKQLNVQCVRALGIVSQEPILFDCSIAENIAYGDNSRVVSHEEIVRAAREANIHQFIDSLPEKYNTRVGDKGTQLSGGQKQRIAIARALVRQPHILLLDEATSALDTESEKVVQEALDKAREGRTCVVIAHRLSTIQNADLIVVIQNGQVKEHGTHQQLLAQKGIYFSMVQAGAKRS
Sequence of Multidrug resistance protein 1a (Rattus norvegicus) (Q6PSM0 as listed by the source): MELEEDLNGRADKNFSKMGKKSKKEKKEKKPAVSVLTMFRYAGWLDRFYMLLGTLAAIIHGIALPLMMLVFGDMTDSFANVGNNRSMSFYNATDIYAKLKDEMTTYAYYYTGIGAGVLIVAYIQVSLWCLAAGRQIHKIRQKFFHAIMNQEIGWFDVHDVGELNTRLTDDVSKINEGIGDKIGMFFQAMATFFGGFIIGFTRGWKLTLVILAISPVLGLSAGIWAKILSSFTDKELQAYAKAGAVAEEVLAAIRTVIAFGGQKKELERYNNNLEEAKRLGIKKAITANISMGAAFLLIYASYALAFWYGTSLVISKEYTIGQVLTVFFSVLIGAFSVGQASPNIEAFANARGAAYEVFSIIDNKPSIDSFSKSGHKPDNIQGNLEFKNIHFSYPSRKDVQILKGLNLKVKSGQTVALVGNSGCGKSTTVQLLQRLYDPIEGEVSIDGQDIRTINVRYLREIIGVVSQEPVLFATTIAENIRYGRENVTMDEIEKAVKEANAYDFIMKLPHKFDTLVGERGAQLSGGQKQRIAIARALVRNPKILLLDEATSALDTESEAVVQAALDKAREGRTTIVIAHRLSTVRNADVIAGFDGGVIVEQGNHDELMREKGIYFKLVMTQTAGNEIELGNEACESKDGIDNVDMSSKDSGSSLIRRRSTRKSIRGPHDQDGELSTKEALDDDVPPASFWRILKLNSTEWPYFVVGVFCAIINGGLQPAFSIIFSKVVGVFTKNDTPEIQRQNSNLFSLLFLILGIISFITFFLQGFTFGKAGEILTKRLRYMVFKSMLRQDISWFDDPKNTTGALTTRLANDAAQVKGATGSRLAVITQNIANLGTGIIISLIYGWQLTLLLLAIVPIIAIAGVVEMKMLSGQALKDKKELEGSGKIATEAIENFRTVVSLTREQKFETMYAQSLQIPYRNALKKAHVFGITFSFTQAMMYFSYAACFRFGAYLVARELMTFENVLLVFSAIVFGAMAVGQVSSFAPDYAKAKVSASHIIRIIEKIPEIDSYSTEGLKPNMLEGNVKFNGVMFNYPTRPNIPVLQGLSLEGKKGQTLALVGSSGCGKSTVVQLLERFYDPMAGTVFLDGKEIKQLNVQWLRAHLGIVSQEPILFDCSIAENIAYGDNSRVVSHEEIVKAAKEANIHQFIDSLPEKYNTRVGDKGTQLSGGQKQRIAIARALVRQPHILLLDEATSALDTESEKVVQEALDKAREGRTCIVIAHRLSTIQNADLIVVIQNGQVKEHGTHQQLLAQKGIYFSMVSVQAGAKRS

For `C=CCSCC=C`, which Activity [1] is on record?
The Activity was “inducer [+]”.

`Cc1c(-c2cnccn2)ssc1=S` was tested. Which Activity [1] did it give?
Its Activity is “inducer [+]”.

`NNC(=O)c1ccncc1` was tested. Which Activity [1] did it give?
The Activity was “inducer [+]”.

`OCc1c[nH]c2ccccc12` [INDOLE-3-CARBINOL] was tested. Which Activity [2] did it give?
Its Activity is “inducer [+]”.

How did the Activity [2] turn out when `Clc1ccc(-c2cc(Cl)c(Cl)cc2Cl)c(Cl)c1` [POLYCHLORINATED BIPHENYL 99] was run?
The Activity was “inducer [+]”.

How did the Activity [2] turn out when `CN(N=O)C(=O)N[C@@H](C=O)[C@@H](O)[C@H](O)[C@H](O)CO` [STREPTOZOCIN] was run?
Its Activity is “inducer [+]”.

And the Activity [3]?
The Activity was “inducer [+]”.
